Read-outs that look alike come from different tables or passages of the source.
Legend:
Colibacillus = test: microbe, parasite or virus in culture; type: cell-based; details: read-out: Efficiency of the preparation, % Colibacillus
Staphylococcus aureus = test: microbe, parasite or virus in culture; type: cell-based; details: read-out: Efficiency of the preparation, % Staphylococcus aureus
[1] = system: Infectant of poliomyelitis
ascarid ovi = test: animal or person; type: in vivo, pig.ascarid
Alternaria radicina = type: cell-based
Aspergillus niger = type: cell-based
Fusarium oxysporum = type: cell-based
Helminthosporum saturem = type: cell-based
Venturia inaequalis = type: cell-based
Penicillium sporum = type: cell-based
Candida albicans = test: microbe, parasite or virus in culture; type: cell-based
Candida tropicalis = test: microbe, parasite or virus in culture; type: cell-based
[2] = system: virus of influenza, type A, (H1N1); test: microbe, parasite or virus in culture; details: H1N1, 0.5 h, read-out: Death of viruses (%) at 30 minutes exposure, Virus of influenza A
houseflies [3] = test: whole plant or invertebrate; details: Musca domestica; for mortality at 1 %: read-out: Death of flies, % Tests laboratory
houseflies [4] = details: house fly, in vivo
[5] = read-out: Death of ascarid ovi, % Tests laboratory
[6] = 2 h, read-out: Death of test fungi, % to the control, Candida albicans 2 hrs
[7] = 20 h, read-out: Death of test fungi, % to the control, Candida albicans 20 hrs
[8] = 2 h, read-out: Death of test fungi, % to the control, Candida tropicalis 2 hrs
[9] = 20 h, read-out: Death of test fungi, % to the control, Candida tropicalis 20 hrs
[10] = 24 h, read-out: Death of flies, % after 24 hours
[11] = 72 h, read-out: Death of flies, % after 72 hours
[12] = 24 h, read-out: Death of ascarid ovi, % after 24 hrs
[13] = 48 h, read-out: Death of ascarid ovi, % after 48 hours
[14] = 72 h, read-out: Death of ascarid ovi, % after 72 hours

For `O=[N+]([O-])c1ccc(C(O)C(CO)NP(=O)(O)O)cc1` (centres unmarked) [Example 1, 1-para-netrophenyl-1,3--propanediolamidophosphoric acid], the killing at 0.5 % (Colibacillus) was 100%, the killing at 0.5 % (Staphylococcus aureus) was 80% and the “Death of viruses (%) at 60 minutes exposure, Infectant of poliomyelitis” value [1] was 40%. For the same compound, the killing at 3 % (ascarid ovi; [5]) was 100%, the “Mycelium growth inhibition, % to the control, Alternaria radicina” value (Alternaria radicina) was 75% and the “Mycelium growth inhibition, % to the control, Aspergillus niger” value (Aspergillus niger) was 99%. The “Mycelium growth inhibition, % to the control, Fusarium oxisporum” value (Fusarium oxysporum) was 68%, the “Mycelium growth inhibition, % to the control, Helminthosporum saturem” value (Helminthosporum saturem) was 54% and the “Mycelium growth inhibition, % to the control, Venturia inaequalis” value (Venturia inaequalis) was 32%. The “Mycelium growth inhibition, % to the control, Penicillium sporum” value (Penicillium sporum) was 58%, the killing at 0.05 % (Candida albicans; [6]) was 98% and the killing at 0.05 % (Candida albicans; [7]) was 100%. The killing at 0.05 % (Candida tropicalis; [8]) was 96% and the killing at 0.05 % (Candida tropicalis; [9]) was 100%.

In the case of `O=[N+]([O-])c1ccc(C(O)C(CCl)NP(=O)(O)O)cc1` (centres unmarked) [Example 2, 1-para-nitrophenyl-1--chloro-3-propanolamidophosphoric acid], the killing at 0.5 % (Colibacillus) was 100%, the killing at 0.5 % (Staphylococcus aureus) was 100% and the “Death of viruses (%) at 60 minutes exposure, Infectant of poliomyelitis” value [1] was 60%. The killing at 3 % (ascarid ovi; [5]) was 100%, the “Mycelium growth inhibition, % to the control, Alternaria radicina” value (Alternaria radicina) was 60% and the “Mycelium growth inhibition, % to the control, Aspergillus niger” value (Aspergillus niger) was 100%. The “Mycelium growth inhibition, % to the control, Fusarium oxisporum” value (Fusarium oxysporum) was 69%, the “Mycelium growth inhibition, % to the control, Helminthosporum saturem” value (Helminthosporum saturem) was 88% and the “Mycelium growth inhibition, % to the control, Venturia inaequalis” value (Venturia inaequalis) was 64%. The “Mycelium growth inhibition, % to the control, Penicillium sporum” value (Penicillium sporum) was 68%, the killing at 0.05 % (Candida albicans; [6]) was 99% and the killing at 0.05 % (Candida albicans; [7]) was 100%. The killing at 0.05 % (Candida tropicalis; [8]) was 90% and the killing at 0.05 % (Candida tropicalis; [9]) was 100%.

For `O=[N+]([O-])c1ccc(C(O)C(CCl)NP(=O)(Oc2ccccc2)Oc2ccccc2)cc1` (centres unmarked) [Example 5, diphenyl ether of 1-para-nitrophenyl-1--hydroxy-3-chloroisopropylamidophosphoric acid], the killing at 1 % [2] was 100%, the killing at 3 % (ascarid ovi; [5]) was 100% and the mortality at 3 % (houseflies [3]; [10]) was 35.4%. The mortality at 3 % (houseflies [3]; [11]) was 96%.

Compound `O=[N+]([O-])c1ccc(C(Cl)C(CCl)NP(=O)(Oc2ccccc2)Oc2ccccc2)cc1` (centres unmarked) [Example 6, 1-para-nitrophenyl-1,3-dichlorisopropylamidophosphoric acid diphenyl ether] has a killing at 1 % [2] of 100%, a killing at 3 % (ascarid ovi; [5]) of 100% and a mortality at 3 % (houseflies [3]; [10]) of 64.7%. The mortality at 3 % (houseflies [3]; [11]) was 98.6%.

For `O=[N+]([O-])c1ccc(C(O)C(CCl)NP(=O)(Nc2ccccc2)Nc2ccccc2)cc1` (centres unmarked) [Example 7, 1-para-nitrophenyl-1-hydroxy-3-chloroisopro-pylamidophosphoric acid dianilide], the killing at 1 % [2] was 100%, the killing at 3 % (ascarid ovi; [5]) was 100% and the mortality at 3 % (houseflies [3]; [10]) was 55.1%. The mortality at 3 % (houseflies [3]; [11]) was 94%.

With `O=[N+]([O-])c1ccc(C(Cl)C(CCl)NP(=O)(Nc2ccccc2)Nc2ccccc2)cc1` (centres unmarked) [Example 8, 1-para- . -nitrophenyl-1,3-dichloroisopropylamidophosphoric acid dianilide] the killing at 1 % [2] was 100%, the killing at 3 % (ascarid ovi; [5]) was 100% and the mortality at 3 % (houseflies [3]; [10]) was 66.4%. It also gave a mortality at 3 % (houseflies [3]; [11]) of 98%.

With `O=[N+]([O-])c1ccc(C(O)C(CCl)NP(=O)(O)Nc2ccccc2)cc1` (centres unmarked) [Example 9] the killing at 1 % [2] was 78%, the killing at 3 % (ascarid ovi; [5]) was 100% and the mortality at 3 % (houseflies [3]; [10]) was 65%. The mortality at 3 % (houseflies [3]; [11]) was 96%.

For `O=[N+]([O-])c1ccc(C(Cl)C(CCl)NP(=O)(O)Nc2ccccc2)cc1` (centres unmarked) [Example 10, 1-para-nitrophenyl-1,3-dichloropropan--2-amidophosphoric acid monoanilide], the killing at 1 % [2] was 87%, the killing at 3 % (ascarid ovi; [5]) was 100% and the mortality at 3 % (houseflies [3]; [10]) was 77%. For the same compound, the mortality at 3 % (houseflies [3]; [11]) was 99%.

Work on `COP(=O)(NC(CCl)C(O)c1ccc([N+](=O)[O-])cc1)OC` (centres unmarked) [Example 11, 1-para-nitrophenyl-1-chloro-3-propanolamidophosphoric acid dimethyl ether] yielded a killing at 1 % [2] of 74%, a killing at 3 % (ascarid ovi; [12]) of 100% and a killing at 3 % (ascarid ovi; [13]) of 100%. The killing at 3 % (ascarid ovi; [14]) was 100%, the “Death of flies, % Tests laboratory” value (houseflies [4]) was 72.7% and the mortality at 1 % (houseflies [3]) was 67.7%.

With `COP(=O)(NC(CCl)C(Cl)c1ccc([N+](=O)[O-])cc1)OC` (centres unmarked) [Example 12, 1-para-nitrophenyl--1,3-dichloropropanamidophosphoric acid dimethyl ether] the killing at 1 % [2] was 85%, the killing at 3 % (ascarid ovi; [12]) was 100% and the killing at 3 % (ascarid ovi; [13]) was 100%. The killing at 3 % (ascarid ovi; [14]) was 100% and the mortality at 1 % (houseflies [3]) was 71.4%.

Work on `CCOP(=O)(NC(CCl)C(O)c1ccc([N+](=O)[O-])cc1)OCC` (centres unmarked) [Example 13, 1-para-nitrophenyl-1-chloro-3-propanolamidophosphoric acid diethyl ether] yielded a killing at 1 % [2] of 90%, a killing at 3 % (ascarid ovi; [12]) of 100% and a killing at 3 % (ascarid ovi; [13]) of 100%. The killing at 3 % (ascarid ovi; [14]) was 100% and the mortality at 1 % (houseflies [3]) was 99.6%.

— patent EP0404945A1 (priority 1989, dated 1990)
